According to patent publication US12404279B2, “Deubiquitinase inhibitors and methods of use thereof” (Molecure S.A., priority 2021, dated 2025):
pIC50: −log10 of the molar value. Structures can show the parent of a compound that is named as a salt.

Target: full-length USP7 (Homo sapiens (Human), UniProt Q93009)
Experiment: Enzymatic assay to determine IC50 of USP7 inhibitors (Ubiquitin-Rhodamine 110 cleavage)
Format: biochemical
Settings: for pIC50: 0.5 nM USP7, 0.5 μM Ubiquitin-Rhodamine 110, 45 min at 37° C.; for inhibition at 1 µM: at 1 μM of the test compound, given where IC50 not determined yet, read-out: percent value of inhibition of USP7 activity
How it was run: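 Full-length USP7 (0.5 nM) in 50 mM HEPES pH 7.5, 150 mM NaCl, 1 mM DTT, 1 mg/ml BSA, 0.05% Tween20 was preincubated 15 min with DTT at room temperature before compound addition.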

Chain of full-length USP7 (Q93009 whole entry): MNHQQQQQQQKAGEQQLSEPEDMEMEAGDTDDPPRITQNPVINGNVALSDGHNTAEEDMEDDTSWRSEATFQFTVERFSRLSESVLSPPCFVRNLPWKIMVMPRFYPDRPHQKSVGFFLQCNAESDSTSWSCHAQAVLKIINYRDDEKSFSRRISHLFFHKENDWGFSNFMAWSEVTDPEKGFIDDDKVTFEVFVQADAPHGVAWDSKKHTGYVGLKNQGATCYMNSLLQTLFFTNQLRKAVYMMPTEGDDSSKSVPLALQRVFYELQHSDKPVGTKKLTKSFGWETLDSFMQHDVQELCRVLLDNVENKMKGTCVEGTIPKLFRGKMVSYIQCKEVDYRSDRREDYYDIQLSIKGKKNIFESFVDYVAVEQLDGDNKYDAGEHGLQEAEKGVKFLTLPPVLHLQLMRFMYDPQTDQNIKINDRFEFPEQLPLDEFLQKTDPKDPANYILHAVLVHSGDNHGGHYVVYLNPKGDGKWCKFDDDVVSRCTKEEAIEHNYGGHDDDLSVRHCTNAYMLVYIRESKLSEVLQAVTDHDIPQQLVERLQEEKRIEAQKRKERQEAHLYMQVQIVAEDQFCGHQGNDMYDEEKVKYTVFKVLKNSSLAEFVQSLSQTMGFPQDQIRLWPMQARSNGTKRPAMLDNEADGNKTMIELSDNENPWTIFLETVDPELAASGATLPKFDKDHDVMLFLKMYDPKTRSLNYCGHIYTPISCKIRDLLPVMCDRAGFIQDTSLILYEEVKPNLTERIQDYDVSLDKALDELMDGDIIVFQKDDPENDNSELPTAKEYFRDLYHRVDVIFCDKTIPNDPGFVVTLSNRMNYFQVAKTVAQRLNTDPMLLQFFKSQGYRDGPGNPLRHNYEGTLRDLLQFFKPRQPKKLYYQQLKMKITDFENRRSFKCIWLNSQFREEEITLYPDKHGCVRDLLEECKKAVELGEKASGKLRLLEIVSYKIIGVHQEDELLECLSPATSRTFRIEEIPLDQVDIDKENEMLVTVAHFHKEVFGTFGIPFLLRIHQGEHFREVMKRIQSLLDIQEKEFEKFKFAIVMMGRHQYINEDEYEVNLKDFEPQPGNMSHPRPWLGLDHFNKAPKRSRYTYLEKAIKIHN

**Q.** How did the pIC50 turn out when `Cc1cc(C(F)(F)F)nc(-c2ccnc3cc(CN4C(=O)C5C(C4=O)C5(C)C)sc23)c1C(=O)N1CC[C@H](CF)C1` (stereo partly drawn) [Example 105, 3-((7-(3-((S)-3-(fluoromethyl)pyrrolidine-1-carbonyl)-4-methyl-6-(trifluoromethyl)pyridin-2-yl)thieno[3,2-b]pyridin-2-yl)methyl)-6,6-dimethyl-3-azabicyclo[3.1.0]hexane-2,4-dione hydrochloride] was run?
**A.** > 6.30

**Q.** How did the pIC50 turn out when `Cc1cc(C(F)(F)F)nc(-c2ccnc3cc(CN4C(=O)C5C(C4=O)C5(C)C)sc23)c1C(=O)N1C[C@@H](N)[C@@H](C)C1` (stereo partly drawn) [Example 106, 3-((7-(3-((3S,4S)-3-amino-4-methylpyrrolidine-1-carbonyl)-4-methyl-6-(trifluoromethyl)pyridin-2-yl)thieno[3,2-b]pyridin-2-yl)methyl)-6,6-dimethyl-3-azabicyclo[3.1.0]hexane-2,4-dione hydrochloride] was run?
**A.** > 6.30

**Q.** How did the pIC50 turn out when `Cc1cc(C(F)(F)F)nc(-c2ccnc3cc(CN4C(=O)C5C(C4=O)C5(C)C)sc23)c1C(=O)N1C[C@@H](C)[C@H](N)C1` (stereo partly drawn) [Example 107, 3-((7-(3-((3S,4R)-3-amino-4-methylpyrrolidine-1-carbonyl)-4-methyl-6-(trifluoromethyl)pyridin-2-yl)thieno[3,2-b]pyridin-2-yl)methyl)-6,6-dimethyl-3-azabicyclo[3.1.0]hexane-2,4-dione hydrochloride] was run?
**A.** > 6.30

**Q.** `Cc1cc(C(F)(F)F)nc(-c2ccnc3cc(CN4C(=O)C5C(C4=O)C5(C)C)sc23)c1C(=O)N1C[C@H]2CCN[C@H]2C1` (stereo partly drawn) [Example 108, 6,6-dimethyl-3-((7-(4-methyl-3-((3aR,6aR)-octahydropyrrolo[3,4-b]pyrrole-5-carbonyl)-6-(trifluoromethyl)pyridin-2-yl)thieno[3,2-b]pyridin-2-yl)methyl)-3-azabicyclo[3.1.0]hexane-2,4-dione dihydrochloride] was tested. Which pIC50 did it give?
**A.** > 6.30

**Q.** With `Cc1cc(C(F)(F)F)nc(-c2ccnc3cc(CN4C(=O)C5C(C4=O)C5(C)C)sc23)c1C(=O)N1CC[C@H](NC(=O)[C@@H](N)C(C)C)C1` (stereo partly drawn) [Example 109, (2S)-2-amino-N-((3S)-1-(2-(2-((6,6-dimethyl-2,4-dioxo-3-azabicyclo[3.1.0]hexan-3-yl)methyl)thieno[3,2-b]pyridin-7-yl)-4-methyl-6-(trifluoromethyl)nicotinoyl)pyrrolidin-3-yl)-3-methylbutanamide dihydrochloride] as the molecule, how does the pIC50 read?
**A.** > 6.30

**Q.** How did the pIC50 turn out when `Cc1cc(C(F)(F)F)nc(-c2ccnc3cc(CN4C(=O)C5C(C4=O)C5(C)C)sc23)c1C(=O)N1CC[C@H](NC(=O)[C@H](C)N)C1` (stereo partly drawn) [Example 110, (2S)-2-amino-N-((3S)-1-(2-(2-((6,6-dimethyl-2,4-dioxo-3-azabicyclo[3.1.0]hexan-3-yl)methyl)thieno[3,2-b]pyridin-7-yl)-4-methyl-6-(trifluoromethyl)nicotinoyl)pyrrolidin-3-yl)propanamide dihydrochloride] was run?
**A.** 6.00 to 6.30

**Q.** With `Cc1cc(C(F)(F)F)nc(-c2ccnc3cc(CN4C(=O)C5C(C4=O)C5(C)C)sc23)c1C(=O)NC1CCNCC1` (stereo not shown) [Example 111, 2-(2-((6,6-dimethyl-2,4-dioxo-3-azabicyclo[3.1.0]hexan-3-yl)methyl)thieno[3,2-b]pyridin-7-yl)-4-methyl-N-(piperidin-4-yl)-6-(trifluoromethyl)nicotinamide dihydrochloride] as the molecule, how does the inhibition at 1 µM read?
**A.** < 20%

**Q.** With `Cc1cc(C(F)(F)F)nc(-c2ccnc3cc(CN4C(=O)C5C(C4=O)C5(C)C)sc23)c1C(=O)N1CCC(N)CC1` (stereo not shown) [Example 112, 3-((7-(3-(4-aminopiperidine-1-carbonyl)-4-methyl-6-(trifluoromethyl)pyridin-2-yl)thieno[3,2-b]pyridin-2-yl)methyl)-6,6-dimethyl-3-azabicyclo[3.1.0]hexane-2,4-dione dihydrochloride] as the molecule, how does the pIC50 read?
**A.** > 6.30

**Q.** With `Cc1cc(C(F)(F)F)nc(-c2ccnc3cc(CN4C(=O)C5C(C4=O)C5(C)C)sc23)c1C(=O)N1CC[C@H](O)C1` (stereo partly drawn) [Example 113, 3-((7-(3-((S)-3-hydroxypyrrolidine-1-carbonyl)-4-methyl-6-(trifluoromethyl)pyridin-2-yl)thieno[3,2-b]pyridin-2-yl)methyl)-6,6-dimethyl-3-azabicyclo[3.1.0]hexane-2,4-dione hydrochloride] as the molecule, how does the pIC50 read?
**A.** > 6.30

**Q.** `Cc1cc(C(F)(F)F)nc(-c2ccnc3cc(CN4C(=O)C5C(C4=O)C5(C)C)sc23)c1C(=O)N1CC[C@H](F)C1` (stereo partly drawn) [Example 114, 3-((7-(3-((S)-3-fluoropyrrolidine-1-carbonyl)-4-methyl-6-(trifluoromethyl)pyridin-2-yl)thieno[3,2-b]pyridin-2-yl)methyl)-6,6-dimethyl-3-azabicyclo[3.1.0]hexane-2,4-dione hydrochloride] was tested. Which pIC50 did it give?
**A.** > 6.30

**Q.** `Cc1cc(C(F)(F)F)nc(-c2ccnc3cc(CN4C(=O)C5C(C4=O)C5(C)C)sc23)c1C(=O)N1CC[C@H](CN)C1` (stereo partly drawn) [Example 115, 3-((7-(3-((R)-3-(aminomethyl)pyrrolidine-1-carbonyl)-4-methyl-6-(trifluoromethyl)pyridin-2-yl)thieno[3,2-b]pyridin-2-yl)methyl)-6,6-dimethyl-3-azabicyclo[3.1.0]hexane-2,4-dione dihydrochloride] was tested. Which pIC50 did it give?
**A.** 6.00 to 6.30

**Q.** `Cc1cc(C(F)(F)F)nc(-c2ccnc3cc(CN4C(=O)C5C(C4=O)C5(C)C)sc23)c1C(=O)N1CC[C@@H]2CNC[C@@H]21` (stereo partly drawn) [Example 116, 6,6-dimethyl-3-((7-(4-methyl-3-((3aR,6aR)-octahydropyrrolo[3,4-b]pyrrole-1-carbonyl)-6-(trifluoromethyl)pyridin-2-yl)thieno[3,2-b]pyridin-2-yl)methyl)-3-azabicyclo[3.1.0]hexane-2,4-dione dihydrochloride] was tested. Which pIC50 did it give?
**A.** > 6.30

**Q.** How did the pIC50 turn out when `Cc1cc(C(F)(F)F)nc(-c2ccnc3cc(CN4C(=O)C5C(C4=O)C5(C)C)sc23)c1C(=O)N1C[C@@H](N)[C@H](F)C1` (stereo partly drawn) [Example 117, 3-((7-(3-((3R,4R)-3-amino-4-fluoropyrrolidine-1-carbonyl)-4-methyl-6-(trifluoromethyl)pyridin-2-yl)thieno[3,2-b]pyridin-2-yl)methyl)-6,6-dimethyl-3-azabicyclo[3.1.0]hexane-2,4-dione dihydrochloride] was run?
**A.** > 6.30

**Q.** With `Cc1cc(Cl)cc(-c2ccnc3cc(CN4C(=O)C5C(C4=O)C5(C)C)sc23)c1NC(=O)C1CCNCC1` (stereo not shown) [Example 118, N-(4-chloro-2-(2-((6,6-dimethyl-2,4-dioxo-3-azabicyclo[3.1.0]hexan-3-yl)methyl)thieno[3,2-b]pyridin-7-yl)-6-methylphenyl)piperidine-4-carboxamide 2,2,2-trifluoroacetate] as the molecule, how does the pIC50 read?
**A.** > 6.30

**Q.** With `Cc1cc(-c2ccnc3cc(CN4C(=O)C5C(C4=O)C5(C)C)sc23)c(O[C@H]2CCCNC2)cn1` (stereo partly drawn) [Example 119, 6,6-dimethyl-3-((7-(2-methyl-5-(((S)-piperidin-3-yl)oxy)pyridin-4-yl)thieno[3,2-b]pyridin-2-yl)methyl)-3-azabicyclo[3.1.0]hexane-2,4-dione 2,2,2-trifluoroacetate] as the molecule, how does the inhibition at 1 µM read?
**A.** < 20%

**Q.** `Cc1nc(Cl)cc(-c2ccnc3cc(CN4C(=O)C5C(C4=O)C5(C)C)sc23)c1NC(=O)[C@@H]1CCNC1` (stereo partly drawn) [Example 120, (3R)—N-(6-chloro-4-(2-((6,6-dimethyl-2,4-dioxo-3-azabicyclo[3.1.0]hexan-3-yl)methyl)thieno[3,2-b]pyridin-7-yl)-2-methylpyridin-3-yl)pyrrolidine-3-carboxamide 2,2,2-trifluoroacetate] was tested. Which pIC50 did it give?
**A.** 5.00 to 6.00

**Q.** How did the pIC50 turn out when `Cc1cc(Cl)nc(-c2ccnc3cc(CN4C(=O)C5C(C4=O)C5(C)C)sc23)c1N1CCCNC1=O` (stereo not shown) [Example 121, 3-((7-(6-chloro-4-methyl-3-(2-oxotetrahydropyrimidin-1(2H)-yl)pyridin-2-yl)thieno[3,2-b]pyridin-2-yl)methyl)-6,6-dimethyl-3-azabicyclo[3.1.0]hexane-2,4-dione 2,2,2-trifluoroacetate] was run?
**A.** 6.00 to 6.30

**Q.** How did the pIC50 turn out when `Cc1cc(Cl)nc(-c2ccnc3cc(CN4C(=O)C5C(C4=O)C5(C)C)sc23)c1NC1CNC1` (stereo not shown) [Example 122, 3-((7-(3-(azetidin-3-ylamino)-6-chloro-4-methylpyridin-2-yl)thieno[3,2-b]pyridin-2-yl)methyl)-6,6-dimethyl-3-azabicyclo[3.1.0]hexane-2,4-dione tetrahydrochloride] was run?
**A.** > 6.30

**Q.** `Cc1cc(Cl)nc(-c2ccnc3cc(CN4C(=O)C5C(C4=O)C5(C)C)sc23)c1NC1CC(F)(F)C1` (stereo not shown) [Example 123, 3-((7-(6-chloro-3-((3,3-difluorocyclobutyl)amino)-4-methylpyridin-2-yl)thieno[3,2-b]pyridin-2-yl)methyl)-6,6-dimethyl-3-azabicyclo[3.1.0]hexane-2,4-dione 2,2,2-trifluoroacetate] was tested. Which pIC50 did it give?
**A.** 6.00 to 6.30

**Q.** How did the pIC50 turn out when `Cc1cc(Cl)nc(-c2ccnc3cc(CN4C(=O)C5C(C4=O)C5(C)C)sc23)c1NC1CCNC1` (stereo not shown) [Example 126, 3-((7-(6-chloro-4-methyl-3-(pyrrolidin-3-ylamino)pyridin-2-yl)thieno[3,2-b]pyridin-2-yl)methyl)-6,6-dimethyl-3-azabicyclo[3.1.0]hexane-2,4-dione tetrahydrochloride] was run?
**A.** > 6.30

**Q.** How did the pIC50 turn out when `Cc1cc(Cl)nc(-c2ccnc3cc(CN4C(=O)C5C(C4=O)C5(C)C)sc23)c1NC1CCNCC1` (stereo not shown) [Example 127, 3-((7-(6-chloro-4-methyl-3-(piperidin-4-ylamino)pyridin-2-yl)thieno[3,2-b]pyridin-2-yl)methyl)-6,6-dimethyl-3-azabicyclo[3.1.0]hexane-2,4-dione tetrahydrochloride] was run?
**A.** > 6.30

**Q.** How did the pIC50 turn out when `Cc1cc(C(F)(F)F)nc(-c2ccnc3cc(CN4C(=O)C5C(C4=O)C5(C)C)sc23)c1NC1CCNCC1` (stereo not shown) [Example 128, 6,6-dimethyl-3-((7-(4-methyl-3-(piperidin-4-ylamino)-6-(trifluoromethyl)pyridin-2-yl)thieno[3,2-b]pyridin-2-yl)methyl)-3-azabicyclo[3.1.0]hexane-2,4-dione tetrahydrochloride] was run?
**A.** > 6.30
